The results in this text go back to US11708340B2, “Benzothia(di)azepine compounds and their use as bile acid modulators” (Albireo AB, priority 2019, dated 2023).

Test [1] concerns the target T1, Human LBAT (Homo sapiens, UniProt Q14973).
T1 construct: expressed in transfected cells; Geneticin selection
T1 sequence (Q14973 1-349): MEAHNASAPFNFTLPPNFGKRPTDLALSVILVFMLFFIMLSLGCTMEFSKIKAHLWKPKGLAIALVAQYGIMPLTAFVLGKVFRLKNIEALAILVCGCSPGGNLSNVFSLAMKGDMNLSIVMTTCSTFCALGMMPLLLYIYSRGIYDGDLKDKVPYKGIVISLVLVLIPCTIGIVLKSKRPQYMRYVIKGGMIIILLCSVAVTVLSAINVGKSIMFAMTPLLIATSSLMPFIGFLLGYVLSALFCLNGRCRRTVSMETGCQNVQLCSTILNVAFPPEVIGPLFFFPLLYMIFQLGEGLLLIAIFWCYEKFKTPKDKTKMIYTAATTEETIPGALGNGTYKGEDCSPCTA
Description: LBAT (h/m) assay, human LBAT-overexpressing cells, 3H-taurocholic acid uptake. The test is classed as cell-based. To be noted: 0.3 μM 3H-taurocholic acid and 7.5 μM cold taurocholic acid, 20 minutes, read-out: hLBAT IC50. Here is the method: 20,000 cells (Human or Mouse LBAT-overexpressing cells) were seeded in 96-wells plate (Corning CLS3809) in 100 μL MEM-alpha medium (Gibco 12571-063) supplemented with 10% FBS (Gibco 10438026) containing Geneticin (Gibco 10131-027) (1 mg/mL) and incubated at 37° C. in 5% CO2 for 24 hours. After incubation, media was decanted from the wells and cells were washed two times with 300 μL of basal MEM-alpha medium (FBS-free). After decanting basal MEM-alpha medium each time, plates were tapped against paper towel to ensure maximum removal of residual media.
For human LBAT, incubation mix was prepared by adding test inhibitor dilutions (3-fold serial dilution in DMSO (Sigma D2650), 10 points) in MEM-alpha (without FBS) containing 0.3 μM 3H-taurocholic acid (ARC ART-1368) and 7.5 μM cold taurocholic acid (Sigma T4009) (maintaining 0.2% final DMSO concentration). For mouse LBAT, incubation mix was prepared by adding test inhibitor dilutions (3-fold serial dilution in DMSO, 10 points) in MEM-alpha (without FBS) containing 0.3 μM 3H-taurocholic acid and 25 μM cold taurocholic acid maintaining 0.2% final DMSO concentration).
50 μL of incubation mix containing test inhibitors was then added to the wells (in duplicate) and the plates were incubated for 20 minutes in a CO2 incubator at 37° C. After incubation, the reaction was stopped by keeping the plates on ice water mix for 2-3 minutes and then the incubation mix was aspirated completely from the wells. The wells were washed two times with 250 μL of chilled unlabeled 1 mM taurocholic acid dissolved in HEPES (Gibco 15630080)-buffered (10 mM) HBSS (Gibco 14175079) (pH 7.4). The plates were tapped against a paper towel after every wash to ensure maximum removal of blocking buffer.
100 μL of MicroScint-20 (PerkinElmer 6013621) was added to the wells and kept overnight at room temperature before reading the plates in TopCount NXT™ Microplate Scintillation and Luminescence Counter from PerkinElmer under 3H Test protocol (set at 120 seconds reading time per well, with normal plate orientation).
(§1) All test compounds were provided in powder form at room temperature. 10 mM DMSO stocks of the test compounds were prepared, aliquoted and stored at −20° C. From the 10 mM DMSO stock of the compounds, a 3-fold serial dilution in DMSO was prepared to get a total of 10 dilutions of the test compounds. 0.5 μL of this dilution in DMSO was added to 250 μL of FBS-free basal media containing 3H-taurocholic acid and cold taurocholic acid to prepare the incubation mixture.

Test [2] has as its target T2, Human IBAT (Homo sapiens, UniProt Q12908).
T2 construct: expressed in transfected cells; Puromycin selection
T2 sequence (Q12908 1-348): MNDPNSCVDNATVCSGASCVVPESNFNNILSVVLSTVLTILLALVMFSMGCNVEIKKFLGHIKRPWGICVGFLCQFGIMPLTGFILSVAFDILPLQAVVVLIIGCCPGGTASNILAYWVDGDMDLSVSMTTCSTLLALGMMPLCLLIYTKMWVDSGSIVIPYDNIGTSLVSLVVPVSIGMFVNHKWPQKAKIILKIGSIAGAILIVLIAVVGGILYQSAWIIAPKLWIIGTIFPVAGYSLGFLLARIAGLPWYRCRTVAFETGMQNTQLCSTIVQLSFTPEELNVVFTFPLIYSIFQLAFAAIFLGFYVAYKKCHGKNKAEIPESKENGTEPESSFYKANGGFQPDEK
Description: IBAT (h/m) assay, human IBAT-overexpressing cells, 3H-taurocholic acid uptake. The test is classed as cell-based. To be noted: highest test concentration 10 μM, 20 minutes, read-out: hIBAT IC50. Here is the method:
10,000 cells (Human or Mouse IBAT-overexpressing cells) were seeded in 96-wells plate (Corning CLS3809) in 200 μL MEM-alpha medium (Gibco 12571-063) supplemented with 10% FBS (Gibco 10438026) containing Puromycin (Gibco A1113803) (10 μg/mL) and incubated at 37° C. in 5% CO2 for 48 hours. After incubation, media was decanted from the wells and cells were washed two times with 300 μL of basal MEM-alpha medium (FBS-free). After decanting basal MEM-alpha medium each time, plates were tapped against paper towel to ensure maximum removal of residual media. Test inhibitor dilutions (highest test concentration being 10 μM, 3-fold serial dilution, 10 points) prepared in DMSO (Sigma D2650) were added in incubation mix (maintaining 0.2% final DMSO concentration) containing 0.25 μM 3H-taurocholic acid (ARC ART-1368) and 5 μM of cold taurocholic acid (Sigma T4009). 50 μL of incubation mix containing test inhibitors was then added to the wells (in duplicate) and the plates were incubated for 20 minutes in a CO2 incubator at 37° C. After incubation, the reaction was stopped by keeping the plates on ice water mix for 2-3 minutes and then the incubation mix was aspirated completely from the wells. The wells were washed two times with 250 μL of chilled unlabeled 1 mM taurocholic acid dissolved in HEPES (Gibco 15630080)-buffered (10 mM) HBSS (Gibco 14175079) (pH 7.4). The plates were tapped against a paper towel after every wash to ensure maximum removal of blocking buffer.
100 μL of MicroScint-20 (PerkinElmer 6013621) was added to the wells and kept overnight at room temperature before reading the plates in TopCount NXT™ Microplate Scintillation and Luminescence Counter from PerkinElmer under 3H Test protocol (set at 120 seconds reading time per well).
as §1

Structures are written as SMILES.

As for `CCC1CN(c2ccccc2)c2cc(SC)c(O/C=C/C(=O)O)cc2S(=O)(=O)C1` (stereo not drawn) [Example 8, (E)-3-((3-ethyl-7-(methylthio)-1,1-dioxido-5-phenyl-2,3,4,5-tetrahydro-1,5-benzothiazepin-8-yl)oxy)acrylic Acid], in test [1], the IC50 (usually the midpoint of a concentration-inhibition curve) worked out at 242 nM.
Turning to `CCCC[C@@H]1CN(c2ccccc2)c2cc(SC)c(O/C=C/C(=O)O)cc2S(=O)(=O)C1` (single isomer, unassigned) [Example 2], in test [1], the IC50 was found to be 469 nM.
In the case of `CCCCC1CN(c2ccccc2)c2cc(SCC)c(O/C=C/C(=O)O)cc2S(=O)(=O)N1C` (racemic) [Example 17, (E)-3-((3-butyl-7-(ethylthio)-2-methyl-1,1-dioxido-5-phenyl-2,3,4,5-tetrahydro-1,2,5-benzothiadiazepin-8-yl)oxy)acrylic Acid], the IC50 in test [1] is 2.3 nM.
In the case of `CCCCC1CN(c2ccccc2)c2cc(SC)c(O/C=C/C(=O)O)cc2S(=O)(=O)N1` (stereo not drawn) [Example 9, (E)-3-((3-butyl-7-(methylthio)-1,1-dioxido-5-phenyl-2,3,4,5-tetrahydro-1,2,5-benzothiadiazepin-8-yl)oxy)acrylic Acid], the IC50 in test [1] is 8.2 nM.
Regarding `CCCC[C@@H]1CN(c2ccc(F)cc2)c2cc(SCC)c(O/C=C/C(=O)O)cc2S(=O)(=O)N1C` (single isomer, unassigned) [Example 25], in test [1], the IC50 amounted to 267 nM.
Still for that read-out and setting: as for `CCCC[C@@H]1CN(c2ccccc2)c2cc(SC)c(O/C=C/C(=O)O)cc2S(=O)(=O)N1C` (single isomer, unassigned) [Example 16], the figure is 105 nM.
Take `CCCCC1CN(c2ccc(F)cc2)c2cc(SC)c(O/C=C/C(=O)O)cc2S(=O)(=O)N1C` (racemic) [Example 20, (E)-3-((3-butyl-5-(4-fluorophenyl)-2-methyl-7-(methylthio)-1,1-dioxido-2,3,4,5-tetrahydro-1,2,5-benzothiadiazepin-8-yl)oxy)acrylic Acid]: the figures for the IC50 in test [1] and in test [2] were 4.5 nM and 1150 nM, respectively.
Regarding `CCCCC1CN(c2ccccc2)c2cc(SC)c(O/C=C(\F)C(=O)O)cc2S(=O)(=O)N1C` (stereo not drawn) [Example 11, (Z)-3-((3-butyl-2-methyl-7-(methylthio)-1,1-dioxido-5-phenyl-2,3,4,5-tetrahydro-1,2,5-benzothiadiazepin-8-yl)oxy)-2-fluoroacrylic Acid], the IC50 is 1.1 nM in test [1] and 830 nM in test [2].
Regarding `CCCCC1CN(c2ccc(F)cc2)c2cc(SCC)c(O/C=C/C(=O)O)cc2S(=O)(=O)C1` (stereo not drawn) [Example 32, (E)-3-((3-Butyl-7-(ethylthio)-5-(4-fluorophenyl)-1,1-dioxido-2,3,4,5-tetrahydro-1,5-benzothiazepin-8-yl)oxy)acrylic Acid], the IC50 in test [2] was greater than 10000 nM.
On to `CCCCC1CN(c2ccccc2)c2cc(SCC)c(O/C=C/C(=O)O)cc2S(=O)(=O)N1` (stereo not drawn) [Example 31, (E)-3-((3-Butyl-7-(ethylthio)-1,1-dioxido-5-phenyl-2,3,4,5-tetrahydro-1,2,5-benzothiadiazepin-8-yl)oxy)acrylic Acid], for which the IC50 in test [2] was greater than 10000 nM.
As for `CCCCC1CN(c2ccc(F)cc2)c2cc(SC)c(O/C=C/C(=O)O)cc2S(=O)(=O)C1` (racemic) [Example 26, (E)-3-((3-butyl-5-(4-fluorophenyl)-7-(methylthio)-1,1-dioxido-2,3,4,5-tetrahydro-1,5-benzothiazepin-8-yl)oxy)acrylic Acid], the IC50 in test [1] was 8.7 nM; in test [2], greater than 10000 nM.
Take `CCC1CN(c2ccccc2)c2cc(SC)c(O/C=C(\F)C(=O)O)cc2S(=O)(=O)C1` (stereo not drawn) [Example 7, (Z)-3-((3-ethyl-7-(methylthio)-1,1-dioxido-5-phenyl-2,3,4,5-tetrahydro-1,5-benzothiazepin-8-yl)oxy)-2-fluoroacrylic Acid]: in test [1], the IC50 worked out at 73 nM.
Take `CCCC[C@H]1CN(c2ccc(F)cc2)c2cc(SC)c(O/C=C/C(=O)O)cc2S(=O)(=O)N1C` (single isomer, unassigned) [Example 21]: the IC50 in test [1] came out at 3 nM; in test [2], 644 nM.
As for `CCCC[C@H]1CN(c2ccccc2)c2cc(SC)c(O/C=C(\F)C(=O)O)cc2S(=O)(=O)C1` (single isomer, unassigned) [Example 5], in test [1], the IC50 worked out at 28 nM.
`CCCC[C@H]1CN(c2ccc(F)cc2)c2cc(SCC)c(O/C=C/C(=O)O)cc2S(=O)(=O)N1C` (single isomer, unassigned) [Example 24]: the IC50 in test [1] came out at 0.34 nM; in test [2], 265 nM.
Regarding `CCCCC1CN(c2ccccc2)c2cc(SC)c(O/C=C/C(=O)O)cc2S(=O)(=O)N1C` (racemic) [Example 14, (E)-3-((3-butyl-2-methyl-7-(methylthio)-1,1-dioxido-5-phenyl-2,3,4,5-tetrahydro-1,2,5-benzothiadiazepin-8-yl)oxy)acrylic Acid], the IC50 in test [1] was 3.4 nM.
Regarding `CCCC[C@@H]1CN(c2ccccc2)c2cc(SCC)c(O/C=C/C(=O)O)cc2S(=O)(=O)N1C` (single isomer, unassigned) [Example 19], the values for the IC50 in test [1] and in test [2] were 70 nM and greater than 10000 nM, respectively.
Regarding `CCCCC1CN(c2ccccc2)c2cc(SCC)c(O/C=C/C(=O)O)cc2S(=O)(=O)C1` (stereo not drawn) [Example 30, (E)-3-((3-Butyl-7-(ethylthio)-1,1-dioxido-5-phenyl-2,3,4,5-tetrahydro-1,5-benzothiazepin-8-yl)oxy)acrylic Acid], the IC50 was 9.5 nM in test [1] and greater than 10000 nM in test [2].
`CCCC[C@@H]1CN(c2ccc(F)cc2)c2cc(SC)c(O/C=C/C(=O)O)cc2S(=O)(=O)N1C` (single isomer, unassigned) [Example 22]: the IC50 in test [1] was 591 nM; in test [2] it was greater than 10000 nM.
`CCCC[C@H]1CN(c2ccccc2)c2cc(SC)c(O/C=C(\F)C(=O)O)cc2S(=O)(=O)N1C` (single isomer, unassigned) [Example 12]: the IC50 in test [1] worked out at 78 nM.
As for `CCCC[C@@H]1CN(c2ccc(F)cc2)c2cc(SC)c(O/C=C/C(=O)O)cc2S(=O)(=O)C1` (single isomer, unassigned) [Example 28], the IC50 in test [1] is 1.9 nM; in test [2], greater than 3330 nM.
